In brackets after ≈: the same amount, converted by molar mass. Where two headings read alike, the source gives them in different places.
Experiments:
[1] = 1H NMR DOSY, DMSO-d6 0.5% H2O, 112 mM, 298 K; cited from earlier work
[2] = Plasma protein binding, equilibrium dialysis; format: in vitro ADME, human
Description: This allows an assessment of the free drug concentration available to distribute into the tissues and interact with the target. The extent to which a compound binds to the constituents of blood plasma can influence drug distribution. […] page 10: In vitro Absorption, Distribution and Metabolism studies General note: These studies were performed by Contract Research Organisation (CRO) Pharmaron. The methodology provided within the ESI is published within the express permission of this organisation. The percentage of a compound recovered during the […] limitations such as unintended potential non-specific binding events to experimental equipment, solubility issues, etc. Protein Binding measurements in human plasma by using equilibrium dialysis: The fraction unbound in human plasma (P-KB, Ltd People's hospital of Shandong) was measured using 96-well Equilibrium Dialysis Plate (HTDialysis LLC, Gales Ferry, CT). Human plasma containing 5 μM test compound was dialysed against dialysis buffer (PBS, pH 7.4) with initial samples taken to allow for assessment of plasma stability and recovery before the plate was incubated for 6 hours at 37°C at 5% CO2. Samples were removed at 6 hours, and all samples were matrix matched and quenched with acetonitrile containing internal standard. Samples were centrifuged at 3,220g for 30 minutes to precipitate protein and enable sampling of supernatant prior to appropriate dilution for liquid chromatography mass-spectrometry (LC-MS/MS) analysis. Samples were analysed using a Shimadzu Nexera LC Binary Gradient LC-30AD (Shimadzu Inc, Kyoto), coupled to a Sciex 6500+ (AB Inc., Illinois). Separation was achieved using a XSelect HSS T3 (2.5μm, 2.1 x 50 mm) (Waters Ltd., Wilmslow) column at a temperature of 40°C and a binary mobile phase gradient at a flow rate of 0.8 mL/min. Initial LC conditions comprised of […] was ramped to 98% B at 0.5 min, held for 0.4 min and then immediately returned to initial conditions. Sample analysis was by electrospray ionisation in combined with multiple reaction monitoring in positive ionisation mode. The ionisation voltage was +5500 V. Kinetic Solubility Determination in PBS pH 7.4: The stock solutions of test and control compounds were prepared in DMSO at 10 mM. From […] These solutions were then shaken at 1100 rpm for 2 hours at 25°C. Following incubation, the samples were filtered using a vacuum manifold. The filtrate was analysed and quantified against a standard of known concentration using liquid chromatography mass- spectrometry (LC-MS/MS). Samples were analysed using a Shimadzu Nexera LC Binary Gradient LC-30AD (Shimadzu Inc, Kyoto), coupled to a Sciex 4500 mass spectrometer (AB Inc., Illinois). Separation of […] Wilmslow) at a temperature of 40°C and a binary mobile phase gradient at a flow rate of 0.8 mL/min. […] This was ramped to 98% solvent B at 0.5 minutes, held for 0.4 minutes and then immediately returned to initial conditions. Sample analysis was by electrospray ionisation combined with multiple reaction monitoring in positive ion mode. The ionspray voltage was […]. 10

[3] = Kinetic solubility in PBS pH 7.4; format: physicochemical; conditions: upper limit 300 µM

| SMILES | dH (nm) [1] | % Bound ([2]; human plasma, 5 µM, 6 hours, 37 °C) | % Unbound ([2]; human plasma, 6 hours) | % Stability / % Remaining at 6 hr ([2]; human plasma, 6 hr) | % Recovery ([2]; human plasma, after 6 hours) | recovery at 6 h, 5 µM ([2]; human, human plasma, pH 7.4, human plasma, after 6 hours) | remaining at 6 h, 5 µM ([2]; human, plasma, human plasma, 6 hr, read-out: % Stability / % Remaining at 6 hr) | fraction unbound at 6 h, 5 µM ([2]; human, plasma, pH 7.4, human plasma, 5 µM, 6 hours, 37 °C, read-out: % Bound (converted)) | fraction unbound at 6 h, 5 µM ([2]; human, plasma, pH 7.4, human plasma, 6 hours, read-out: % Unbound) | solubility at 2 h ([3]; phosphate buffered saline, 25 °C, pH 7.4, aqueous buffer, kinetic from dmso stock) | Solubility in PBS pH 7.4 (μM) ([3]; 25°C, 2 hours) |
| --- | --- | --- | --- | --- | --- | --- | --- | --- | --- | --- | --- |
| O=C(O)CNC(=O)Nc1ccc(C(F)(F)F)cc1 [SSA 1] | 1.3 (ref. [30]) nm | – | – | – | – | – | – | – | – | – | – |
| O=C(Nc1ccc(C(F)(F)F)cc1)N[C@H](Cc1ccccc1)C(=O)O [SSA 9] | – | 99.73% | 0.3% | 98.85% | 98.3% | 98.3% | 98.9% | 0.003 | 0.0027 | 271 µM (≈ 95.5 µg/mL) | 271 μM |
